This passage reports growth results from ChEMBL document CHEMBL4004838, “Design and synthesis of novel phenyl -1, 4-beta-carboline-hybrid molecules as potential anticancer agents” (Eur J Med Chem, 2017).

Common to all, as to format: functional
The subject of one assay is HL-60(TB). In words: Growth inhibition of human HL-60(TB) cells assessed as cell growth at 10^-5 M incubated for 48 hrs by sulforhodamine B assay relative to control. To be noted: HL-60, 48 h, read-out: Activity. (In SRB staining, fixed cells bind dye roughly in proportion to their protein.)
For the next assay, the system named is SR. In words: Growth inhibition of human SR cells assessed as cell growth at 10^-5 M incubated for 48 hrs by sulforhodamine B assay relative to control. Particulars: read-out: Activity.
The test system of a further assay is HOP-62. In words: Growth inhibition of human HOP62 cells assessed as cell growth at 10^-5 M incubated for 48 hrs by sulforhodamine B assay relative to control. To be noted: HOP-62, 48 h, read-out: Activity.
Another assay relates to HOP-92. In words: Growth inhibition of human HOP92 cells assessed as cell growth at 10^-5 M incubated for 48 hrs by sulforhodamine B assay relative to control. Particulars: HOP-92, 48 h, read-out: Activity.
Another assay concerns NCI-H322M. In words: Growth inhibition of human NCI-H322M cells assessed as cell growth at 10^-5 M incubated for 48 hrs by sulforhodamine B assay relative to control. Particulars: read-out: Activity.
Another assay has as its system HCC 2998. In words: Growth inhibition of human HCC2998 cells assessed as cell growth at 10^-5 M incubated for 48 hrs by sulforhodamine B assay relative to control. Particulars: HCC 2998, 48 h, read-out: Activity.
In the next assay the test system is HCT-116. In words: Growth inhibition of human HCT116 cells assessed as cell growth at 10^-5 M incubated for 48 hrs by sulforhodamine B assay relative to control. Particulars: HCT-116, 48 h, read-out: Activity.
The test system of another assay is HCT-15. In words: Growth inhibition of human HCT15 cells assessed as cell growth at 10^-5 M incubated for 48 hrs by sulforhodamine B assay relative to control. To be noted: HCT-15, 48 h, read-out: Activity.
For another assay, the system named is KM12. In words: Growth inhibition of human KM12 cells assessed as cell growth at 10^-5 M incubated for 48 hrs by sulforhodamine B assay relative to control. Particulars: KM12, 48 h, read-out: Activity.
In the next assay the test system is SF-268. In words: Growth inhibition of human SF268 cells assessed as cell growth at 10^-5 M incubated for 48 hrs by sulforhodamine B assay relative to control. To be noted: SF-268, 48 h, read-out: Activity.
A further assay has as its system SF-295. In words: Growth inhibition of human SF295 cells assessed as cell growth at 10^-5 M incubated for 48 hrs by sulforhodamine B assay relative to control. Particulars: SF-295, 48 h, read-out: Activity.
Another assay relates to SF-539. In words: Growth inhibition of human SF539 cells assessed as cell growth at 10^-5 M incubated for 48 hrs by sulforhodamine B assay relative to control. Particulars: SF-539, 48 h, read-out: Activity.
The next assay has as its system SNB-75. In words: Growth inhibition of human SNB75 cells assessed as cell growth at 10^-5 M incubated for 48 hrs by sulforhodamine B assay relative to control. Particulars: SNB-75, 48 h, read-out: Activity.
The next assay relates to U-251. In words: Growth inhibition of human U251 cells assessed as cell growth at 10^-5 M incubated for 48 hrs by sulforhodamine B assay relative to control. To be noted: U-251, 48 h, read-out: Activity.
In a further assay the test system is Malme-3M. In words: Growth inhibition of human MALME-3M cells assessed as cell growth at 10^-5 M incubated for 48 hrs by sulforhodamine B assay relative to control. Particulars: read-out: Activity.
Another assay concerns MDA-MB-435. In words: Growth inhibition of human MDA-MB-435 cells assessed as cell growth at 10^-5 M incubated for 48 hrs by sulforhodamine B assay relative to control. To be noted: MDA-MB-435, 48 h, read-out: Activity.
For the next assay, the system named is SK-MEL-2. As to the kind of experiment: Growth inhibition of human SK-MEL-2 cells assessed as cell growth at 10^-5 M incubated for 48 hrs by sulforhodamine B assay relative to control. Particulars: SK-MEL-2, 48 h, read-out: Activity.
The test system of another assay is SK-MEL-28. In words: Growth inhibition of human SK-MEL-28 cells assessed as cell growth at 10^-5 M incubated for 48 hrs by sulforhodamine B assay relative to control. Particulars: SK-MEL-28, 48 h, read-out: Activity.
In a further assay the test system is UACC-62. In words: Growth inhibition of human UACC62 cells assessed as cell growth at 10^-5 M incubated for 48 hrs by sulforhodamine B assay relative to control. Particulars: UACC-62, 48 h, read-out: Activity.
The test system of a further assay is OVCAR-3. In words: Growth inhibition of human OVCAR3 cells assessed as cell growth at 10^-5 M incubated for 48 hrs by sulforhodamine B assay relative to control. To be noted: OVCAR-3, 48 h, read-out: Activity.
Another assay concerns OVCAR-4. As to the kind of experiment: Growth inhibition of human OVCAR4 cells assessed as cell growth at 10^-5 M incubated for 48 hrs by sulforhodamine B assay relative to control. Particulars: OVCAR-4, 48 h, read-out: Activity.
The test system of the next assay is NCI/ADR-RES. As to the kind of experiment: Growth inhibition of human NCI-ADR-RES cells assessed as cell growth at 10^-5 M incubated for 48 hrs by sulforhodamine B assay relative to control. To be noted: read-out: Activity.
In a further assay the test system is 786-0. In words: Growth inhibition of human 786-0 cells assessed as cell growth at 10^-5 M incubated for 48 hrs by sulforhodamine B assay relative to control. Particulars: 786-0, 48 h, read-out: Activity.
Another assay deals with A498. In words: Growth inhibition of human A498 cells assessed as cell growth at 10^-5 M incubated for 48 hrs by sulforhodamine B assay relative to control. To be noted: A498, 48 h, read-out: Activity.
The next assay relates to RXF 393. As to the kind of experiment: Growth inhibition of human RXF393 cells assessed as cell growth at 10^-5 M incubated for 48 hrs by sulforhodamine B assay relative to control. Particulars: RXF 393, 48 h, read-out: Activity.
Another assay relates to TK-10. As to the kind of experiment: Growth inhibition of human TK10 cells assessed as cell growth at 10^-5 M incubated for 48 hrs by sulforhodamine B assay relative to control. Particulars: TK-10, 48 h, read-out: Activity.
A further assay deals with UO-31. As to the kind of experiment: Growth inhibition of human UO31 cells assessed as cell growth at 10^-5 M incubated for 48 hrs by sulforhodamine B assay relative to control. To be noted: UO-31, 48 h, read-out: Activity.
In the next assay the test system is PC-3. In words: Growth inhibition of human PC3 cells assessed as cell growth at 10^-5 M incubated for 48 hrs by sulforhodamine B assay relative to control. Particulars: PC-3, 48 h, read-out: Activity.
A further assay deals with MCF7. In words: Growth inhibition of human MCF7 cells assessed as cell growth at 10^-5 M incubated for 48 hrs by sulforhodamine B assay relative to control. Particulars: MCF7, 48 h, read-out: Activity.
For a further assay, the system named is Hs-578T. In words: Growth inhibition of human Hs 578T cells assessed as cell growth at 10^-5 M incubated for 48 hrs by sulforhodamine B assay relative to control. To be noted: read-out: Activity.
For a further assay, the system named is BT-549. As to the kind of experiment: Growth inhibition of human BT549 cells assessed as cell growth at 10^-5 M incubated for 48 hrs by sulforhodamine B assay relative to control. Particulars: BT-549, 48 h, read-out: Activity.
A further assay deals with CAKI-1. As to the kind of experiment: Growth inhibition of human Caki1 cells assessed as cell growth at 10^-5 M incubated for 48 hrs by sulforhodamine B assay relative to control. To be noted: CAKI-1, 48 h, read-out: Activity.

Take `c1ccc2c(c1)[nH]c1c(-c3ccc(-c4nccc5c4[nH]c4ccccc45)cc3)nccc12`: the growth at 10 µM with HL-60(TB) was determined as 99.1%; with SR it was 86%; in the assay with HOP-62 it was 82.7%; in the assay with HOP-92, 98.7%; in the assay on NCI-H322M, 104%; in the assay on HCC 2998, 102%. Besides, the growth at 10 µM with HCT-116 was 88.2%; in the assay on HCT-15, 99.7%; in the assay on KM12, 99.1%; in the assay on SF-268, 105%; in the assay on SF-295, 105%; with SF-539, 109%. The growth at 10 µM in the assay on SNB-75 is 82.5%; with U-251, 107%; in the assay with Malme-3M, 92.5%; in the assay with MDA-MB-435 it was 109%; with SK-MEL-2, 95.6%; in the assay on SK-MEL-28, 110%. Further, the growth at 10 µM with UACC-62 stood at 105%; in the assay on OVCAR-3, 101%; in the assay on OVCAR-4, 105%; with NCI/ADR-RES, 95.9%; in the assay with 786-0 it was 94.8%; with A498 it was 145%. The growth at 10 µM with RXF 393 was found to be 111%; in the assay with TK-10, 105%; with UO-31 it was 60.6%; in the assay with PC-3, 84.2%; with MCF7, 88.4%; with Hs-578T, 97.7%. In the assay with BT-549, the growth at 10 µM was determined as 87.6%.

Consider `c1ccc2[nH]c(-c3ccc(C4NCCc5c4[nH]c4ccccc54)cc3)nc2c1` (stereo unspecified), for which the growth at 10 µM in the assay with HL-60(TB) was 97.9%; in the assay with SR, 119%; in the assay on HOP-62, 89%; with HOP-92 it was 82.2%; with NCI-H322M it was 92.8%; in the assay with HCC 2998, 107%. For the same compound, the growth at 10 µM in the assay on HCT-116 turned out to be 96.1%; in the assay on HCT-15 it was 107%; with KM12, 103%; in the assay on SF-268, 98.6%; in the assay on SF-295 it was 107%; in the assay on SF-539 it was 102%. For the same compound, the growth at 10 µM stood at 89% in the assay with SNB-75; 93.4% with U-251; 90% with Malme-3M; 101% in the assay on MDA-MB-435; 96.8% in the assay on SK-MEL-2; 102% in the assay on SK-MEL-28. Also, the growth at 10 µM came out at 86.3% in the assay on UACC-62; 107% in the assay on OVCAR-3; 97.9% with OVCAR-4; 109% in the assay on NCI/ADR-RES; 95.9% in the assay on 786-0; 104% with A498. The growth at 10 µM was 77.5% with CAKI-1; 94.2% in the assay with RXF 393; 94.6% in the assay with TK-10; 73.5% in the assay with UO-31; 85% in the assay with PC-3; 96.7% in the assay on MCF7. Further, the growth at 10 µM was found to be 93.9% in the assay on Hs-578T and 93.2% in the assay on BT-549.

In the case of `Cc1n[nH]c2c1C(c1ccc(C3NCCc4c3[nH]c3ccccc43)cc1)C(C#N)=C(N)O2` (stereo unspecified), the growth at 10 µM stood at 101% in the assay on HL-60(TB); 113% in the assay on SR; 83% in the assay with HOP-62; 88.8% with HOP-92; 97.7% in the assay on NCI-H322M; 105% in the assay on HCC 2998. The growth at 10 µM turned out to be 76.5% in the assay with HCT-116; 87.7% in the assay on HCT-15; 91.9% in the assay on KM12; 92.9% in the assay with SF-268; 86.9% in the assay on SF-295; 92% in the assay on SF-539. The growth at 10 µM was found to be 70.4% with SNB-75; 87.5% in the assay with U-251; 77% with Malme-3M; 96.3% in the assay with MDA-MB-435; 86% in the assay on SK-MEL-2; 97.1% with SK-MEL-28. In addition, the growth at 10 µM with UACC-62 came to 57.8%; with OVCAR-3 it was 96.6%; with OVCAR-4, 85.7%; in the assay on NCI/ADR-RES, 96.3%; in the assay with 786-0, 97.4%; in the assay on A498 it was 67.1%. Besides, the growth at 10 µM amounted to 63.2% with CAKI-1; 99.2% in the assay on RXF 393; 101% with TK-10; 53.9% in the assay with UO-31; 72.3% with PC-3; 78.8% in the assay on MCF7. For the same compound, the growth at 10 µM in the assay with Hs-578T came out at 87.7%; with BT-549, 81.8%.

As to `c1ccc2c3c([nH]c2c1)C(c1ccc(C2NCCc4c2[nH]c2ccccc42)cc1)NCC3` (racemic), the growth at 10 µM is -51% in the assay on CAKI-1 and 57 to 86.9% in the assay on BT-549.

Turning to `c1ccc2[nH]c(-c3ccc(-c4nccc5c4[nH]c4ccccc45)cc3)nc2c1`, the growth at 10 µM is 2 to 86.1% in the assay on HOP-62; 19 to 74% in the assay on HCC 2998; 1 to 16.3% in the assay on HCT-116; 19 to 76.6% with KM12; 52.2% in the assay on SF-268; 10 to 62.6% with NCI/ADR-RES. The growth at 10 µM in the assay on A498 lay within 58 to 68.7%; with PC-3 it was 47 to 85.7%; in the assay with MCF7 it was 17 to 30.4%.
